In PubChem BioAssay (NCI):
Where “and” joins values, the source holds several entries; their conditions need not be identical. Equal entries are not always repeated.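 In this assay, cells in 96-well plates receive the compound at five concentrations for 48 hours. Endpoints are linearly interpolated between the surrounding concentrations. GI50 marks 50% less growth. TGI is the concentration that stops growth completely.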

Key:
Assay in all cases: NCI tumour cell line growth inhibition, 48 h
M14 melanoma = test system: M14 melanoma
MALME-3M melanoma = test system: MALME-3M melanoma
HCC-2998 colon = test system: HCC-2998 colon
SK-MEL-5 melanoma = test system: SK-MEL-5 melanoma
HT29 colon = test system: HT29 colon
NCI-H226 lung = test system: NCI-H226 lung
HCT-15 colon = test system: HCT-15 colon
A498 renal = test system: A498 renal
BT-549 breast = test system: BT-549 breast
HS 578T breast = test system: HS 578T breast

Row | SMILES | TGI (M14 melanoma) | TGI (MALME-3M melanoma) [µM] | TGI (HCC-2998 colon) [µM] | TGI (SK-MEL-5 melanoma) [µM] | TGI (HT29 colon) [µM] | TGI (NCI-H226 lung) [µM] | TGI (HCT-15 colon) [µM] | TGI (A498 renal) [µM] | GI50 (MALME-3M melanoma) [µM] | TGI (BT-549 breast) | TGI (HS 578T breast) [µM] | GI50 (M14 melanoma) [µM] | GI50 (BT-549 breast) [µM] | GI50 (HCC-2998 colon) [µM] | GI50 (SK-MEL-5 melanoma) [µM] | GI50 (HT29 colon) [µM] | GI50 (HCT-15 colon) [µM] | GI50 (A498 renal) [µM] | GI50 (NCI-H226 lung) [µM] | GI50 (HS 578T breast) [µM]
1 | O=C(Nc1cccc(Cl)c1)C(=O)C(C(=O)c1ccc2ccccc2c1)C1OC(=O)c2ccccc21 (stereo not given) | 36.7 µM | 30.8 | 21.8 | 30.3 | 84.5 | 11.5 | – | – | – | – | – | – | – | – | – | – | – | – | – | –
2 | COc1ccc2c(c1OCC(=O)O)C(=O)C(CCC(=O)O)CC2 (stereo not given) | > 100 µM | – | > 100 | > 100 | > 100 | – | > 100 | > 100 | – | – | – | – | – | – | – | – | – | – | – | –
3 | CCOC(=O)N[C@H]1CCc2cc(OC)c(OC)c(OC)c2-c2ccc(SC)c(=O)cc21 | 21.7 µM and > 27.1 µM | > 100 | > 69.6 | – | – | 3.29 | > 100 | – | < 0.0122 | 33.2 µM and > 32.5 µM | > 100 | – | – | – | – | – | – | – | – | –
4 | COC(=O)/C(C#N)=C1\N=NNN1c1ccc(OC)cc1 | > 100 µM | > 100 | > 100 | > 100 | > 100 | > 100 | > 100 | > 100 | – | – | – | – | – | – | – | – | – | – | – | –
5 | O=C1N=C2Sc3ccc4ccccc4c3N2C1=O | 73.8 µM | 47.9 | 68.7 | 58 | 96.7 | 57 | 61.9 | – | – | – | – | – | – | – | – | – | – | – | – | –
6 | CC1(C)COC(c2cccc3c2C(=O)c2cccc(Cl)c2-3)=N1 | > 100 µM | > 100 | > 100 | 73.4 | > 100 | – | > 100 | > 100 | – | – | – | – | – | – | – | – | – | – | – | –
7 | O=C(CC1C(=O)Nc2ccccc2S1=O)Nc1cc(Cl)ccc1Cl (stereo not given) | > 100 µM | > 100 | > 100 | > 100 | > 100 | > 100 | > 100 | > 100 | – | – | – | – | – | – | – | – | – | – | – | –
8 | O=[N+]([O-])c1ccc2occ3c2c1CCC3 | > 100 µM | > 100 | > 100 | > 100 | > 100 | > 100 | > 100 | > 100 | – | – | – | – | – | – | – | – | – | – | – | –
9 | CCCCCCCCCCCCCCCC(=O)OCCOCCOCCOCc1ccccc1 | – | > 100 | – | > 100 | > 100 | > 100 | – | > 100 | – | – | – | – | – | – | – | – | – | – | – | –
10 | N#CC(C(=O)/C(=N\NC(N)=O)C(C#N)c1ccc(Cl)cc1)c1ccc(Cl)cc1 (stereo not given) | > 100 µM | > 100 | – | > 100 | > 100 | > 100 | > 100 | > 100 | – | – | – | – | – | – | – | – | – | – | – | –
11 | Cc1nc(N)sc1N=Nc1ccccc1Br | 67.6 µM | 61 | 21.7 | 48.6 | 59 | 68.2 | 69.8 | 43.2 | – | 46.4 µM | – | – | – | – | – | – | – | – | – | –
12 | COc1c(O)c2c(=O)cc3c4c5c(cc(=O)c6c(O)c(OC)c(CC(C)O)c(c(c1CC(C)O)c24)c65)OCO3 (stereo not given) | 3.57 µM | 1.27 | – | 2.94 | 8.58 | 6.66 | 4.13 | – | – | – | – | – | – | – | – | – | – | – | – | –
13 | Cc1cc(N[C@@H]2CCC[C@H](Nc3ccnc4cc(Cl)ccc34)C2)nc(N2CCCCCC2)n1 | 3.29 µM | 3.42 | 3.29 | 3.27 | 2.98 | 6.06 | 2.62 | 3.2 | 1.83 | 3.75 µM | – | 1.55 | 1.75 | 1.72 | 1.86 | 1.05 | 1.1 | 1.74 | 2.42 | –
14 | CN(C)C1CCN(C(=O)c2ccc(NC(=O)Nc3ccc(-c4nc(N5CCOCC5)c5cccn5n4)cc3)cc2)CC1 | 9.15 µM | – | 5.86 | 0.662 | 3.78 | 2.99 | > 50.7 | – | – | 2.25 µM | 0.0926 | 0.281 | 0.177 | 0.043 | 0.153 | 0.0558 | 2.77 | – | 0.0435 | 0.0192
15 | Cc1nc(Nc2ccc(Cl)cc2)sc1C(=O)NNC(=S)NN | 35.1 µM | 35.5 | 28.8 | 32.9 | – | 38 | 45.5 | 29.1 | – | – | – | – | – | – | – | – | – | – | – | –
16 | Nc1ncn([C@@H]2O[C@H](CO)[C@@H](O)[C@H]2O)c(=O)n1 | 10.8 µM | 25.3 | 5.55 | 7.04 | – | 9.63 | 21.1 | 13.8 | 3.65 | – | – | 1.38 | – | 0.636 | 2.15 | – | 1.6 | 1.41 | 1.39 | –
17 | NC1CCN(Cc2ccccc2)CC1 | > 100 µM | – | > 100 | > 100 | > 100 | – | > 100 | – | – | – | – | > 100 | – | > 100 | 24.2 | > 100 | > 100 | – | – | –
18 | COc1ccc(-c2nnc3n(C)c(=O)c4ccccc4n23)cc1N | > 100 µM | – | > 100 | > 100 | > 100 | > 100 | > 100 | 54.5 | – | > 100 µM | > 100 | 0.0475 | > 100 | 5.29 | 0.0598 | 0.0432 | 0.0498 | 2.84 | > 100 | 4.43
19 | Cc1ccc2nc(/C(=C/c3ccc(/C=C(\NC(=O)c4ccccc4)c4nc5ccc(C)cc5[nH]4)c(C)c3)NC(=O)c3ccccc3)[nH]c2c1 | 52.7 µM | 59.9 | – | 33.5 | > 100 | 77.5 | > 100 | 53.6 | – | – | – | – | – | – | – | – | – | – | – | –
20 | C=CCCCCC1CCC2CCC(CCCCC=C)N12 (stereo not given) | 31.3 µM | 31.8 | 30 | 26.9 | 25.5 | 34.1 | 19.4 | – | – | – | – | – | – | – | – | – | – | – | – | –
21 | c1ccc2c(OCCSCCCCCCCCCCSCCOc3cccc4ccccc34)cccc2c1 | – | > 100 | > 100 | > 100 | > 100 | > 100 | > 100 | > 100 | – | – | – | – | – | – | – | – | – | – | – | –
22 | CN1CCC(=O)/C(=C/c2ccccc2)C1 | 26.7 µM | 35.4 | 23.6 | 33.4 | 11 | 32.2 | > 50 | 33 | – | – | – | – | – | – | – | – | – | – | – | –
23 | COC1C(OC(=S)Nc2ccccc2)c2ccccc2N1C(C)=O (stereo not given) | > 100 µM | – | > 100 | – | > 100 | – | > 100 | > 100 | – | – | – | – | – | – | – | – | – | – | – | –
24 | CN(C)C(=S)/N=c1\sn(C)/c(=N\C(=S)N(C)C)n1C | > 100 µM | 75.7 | > 100 | > 100 | > 100 | > 100 | > 100 | > 100 | – | – | – | – | – | – | – | – | – | – | – | –
